Patent US20230391730A1, “INHIBITORS OF THE BROMODOMAIN PHD FINGER TRANSCRIPTION FACTOR (BPTF) AS ANTI-CANCER AGENTS” (Regents of the University of Minnesota, priority 2020, published 2023)
pIC50, pKd: −log10 of the molar value. Entries after “also recorded” stand apart in the source; their conditions may differ. Blank lines part the entries; values can stand above or below the molecule they belong to.

Tests used:
Sfn = test: RT-qPCR of BPTF regulated genes in Eph4 cells, Sfn; assay type: cell-based, murine; settings: 5 μM, 24 h, relative to DMSO
Procedure: qPCR methods. Eph4 cells were treated for 24 h and harvested in trizol. RNA extraction was carried out via chloroform extractions. cDNA creation was completed via SuperScript III cDNA creation kit (Invitrogen, #12574026). All qpcrs are normalized to EPH4 DMSO and the house keeping gene beta actin. Bars represent 2 biological replicates and 3 technical replicates. All statistical analysis are student's t-test carried out on GraphPad. Reactions were carried out on the Quantstudio 6 platform using Sybr Green PCR Master Mix (Applied Biosystems, #4309155) Statistically significant differences for cell line treatment groups were considered with a one-way Anova p-value lower than 0.05 (p<0.05).
It's been previously shown that BPTF inhibition was associated with alteration to lineage commitment and stem cell maintenance. Loss of BPTF expression in a mixed population of Krt5-expressing mammary stem cells induced differentiation, a process that was accompanied by changes to chromatin accessibility and altered gene expression activation. The effects of the BPTF inhibitors described herein were investigated in mammary luminal cells.

4T1 cells [1] = test: Combination with doxorubicin in 4T1 cells (MTS assay); assay type: cell-based, mouse; settings: for sensitization of 4T1 cells to doxorubicin: 50 nM doxorubicin
Procedure: (§1) Cell culture methods. 4T1 cells were grown to a confluency of 50-60% using media containing DMEM with 10% fetal bovine serum (FES), 2 mM glutamine and penicillin-streptomycin. 4T1 cells with snRNA-mediated BPTF knockdown (KD) were prepared as described previously. For NURF inhibitor toxicity study, 4000 cells/well were seeded in a 96-well plate and allowed to adhere overnight. The next day, 10 different dilutions of inhibitors were prepared starting with a highest concentration of 1.0 mM and further serially diluted 10 times to get the lowest concentration of 1.95 μM. Cells were treated with the inhibitors in complete media for 4 days. Thereafter, the MTS reagent was prepared using the CellTitre 96 aqueous MTS reagent (Promega, Cat #G1111) and phenazine methosulphate (Sigma, Cat #P9625). The MTS assay was performed as per manufacturer's protocol and the absorbance was recorded at a wavelength of 490 nm. Fraction cell survival was calculated using untreated control cells to indicate complete survival (1.0) and blank solutions as 0.0 survival. The data was derived from three independent experiments (N=3) and fraction survival was plotted as mean fraction survival±SEM using GraphPad Prism software. For checking the toxicity on wildtype and BPTF knockdown cells, three doses were selected for each inhibitor based on theft toxicity curves and treated for 4 days alone or in combination with 50 nM doxorubicin. Fraction survival was measured and calculated by MIS assay as mentioned above.

[2] = tested on: 4T1 cells with shRNA-mediated BPTF knockdown; test: Inhibitors with doxorubicin in BPTF knockdown 4T1 cells; assay type: cell-based, mouse
Procedure: as §1, with “For checking the toxicity on wildtype and BPTF knockdown cells, three doses were selected for each inhibitor based on theft toxicity curves and treated for 4 days alone or in combination with 50 nM doxorubicin.” left out

4T1 cells [3] = test: Inhibitor toxicity in 4T1 cells (MTS assay); assay type: cell-based, mouse; settings: inhibitor alone
Procedure: as §1, with “For checking the toxicity on wildtype and BPTF knockdown cells, three doses were selected for each inhibitor based on theft toxicity curves and treated for 4 days alone or in combination with 50 nM doxorubicin.” left out

BPTF bromodomain = target: T1, BPTF bromodomain (Homo sapiens, UniProt Q12830); test: BPTF AlphaScreen competitive inhibition assay; assay type: binding
T1 construct: 30 nM for His9-tagged BPTF bromodomain and 50 nM for the biotinylated peptide were used; made in house
Procedure: (§3) General Procedure for AlphaScreen Assay.^36 Unlabeled His9-tagged BPTF and BRD4 D1 were expressed and purified as described previously.^36 The AlphaScreen assay procedures for BPTF and BRD4 bromodomains were adapted from the manufacturers protocol (PerkinElmer, USA). […] The biotinylated Histone H4 KAc5,8,12,16 peptide was purchased from EpiCypher, with the sequence:
(§4) All reagents were diluted in the assay buffer (50 mM HEPES-Na^+ (ChemImpex), 100 mM NaCl (SigmaAldrich), 0.05% CHAPS (RPI), 0.1% BSA (SigmaAldrich), pH 7.4). The final assay concentrations (after the addition of all assay components) of 30 nM for His9-tagged BPTF bromodomain and 50 nM for the biotinylated peptide were used. […] The plate was sealed and kept at room temperature for 30 min, followed by the addition of 5 μL of the biotinylated peptide. 5 μL of nickel chelate acceptor beads was added to each well under low light conditions (<100 lux), to a final concentration of 20 μg/mL, and the plate was incubated at room temperature in the dark for 30 minutes. This was followed by the addition of 5 μL (20 μg/mL final concentration) of streptavidin donor beads in low light conditions. After incubation for 30 min in the dark, the plate was read in AlphaScreen mode using a PerkinElmer EnSpire plate reader. […] IC50 values were calculated in GraphPad Prism 5 using sigmoidal 4-parameter logistic (4PL) curve

PCAF [4] = target: PCAF (Homo sapiens, UniProt Q92831); settings: previously reported; cited from earlier work
Target sequence in this assay (Q92831 whole entry): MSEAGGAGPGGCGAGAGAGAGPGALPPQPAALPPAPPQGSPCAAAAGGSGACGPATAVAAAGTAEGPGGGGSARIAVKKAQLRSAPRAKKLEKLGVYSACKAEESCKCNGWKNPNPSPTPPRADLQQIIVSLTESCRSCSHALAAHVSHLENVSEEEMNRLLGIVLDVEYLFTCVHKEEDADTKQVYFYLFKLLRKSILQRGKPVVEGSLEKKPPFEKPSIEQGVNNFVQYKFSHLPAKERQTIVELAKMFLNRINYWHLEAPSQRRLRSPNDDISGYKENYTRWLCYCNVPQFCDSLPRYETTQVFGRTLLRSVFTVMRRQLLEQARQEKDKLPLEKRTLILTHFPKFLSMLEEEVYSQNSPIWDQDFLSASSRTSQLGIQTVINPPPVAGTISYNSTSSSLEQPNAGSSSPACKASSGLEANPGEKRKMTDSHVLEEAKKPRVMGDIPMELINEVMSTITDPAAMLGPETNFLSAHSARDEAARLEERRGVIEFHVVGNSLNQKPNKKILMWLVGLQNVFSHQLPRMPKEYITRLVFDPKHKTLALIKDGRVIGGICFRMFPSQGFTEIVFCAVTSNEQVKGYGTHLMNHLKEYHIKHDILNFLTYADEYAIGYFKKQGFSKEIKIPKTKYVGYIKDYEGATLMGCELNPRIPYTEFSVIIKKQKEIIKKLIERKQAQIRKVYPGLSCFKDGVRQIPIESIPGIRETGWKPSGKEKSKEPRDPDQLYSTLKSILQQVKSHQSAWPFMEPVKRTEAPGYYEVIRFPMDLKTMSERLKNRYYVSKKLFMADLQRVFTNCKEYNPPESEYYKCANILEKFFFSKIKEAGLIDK

BRD9 = target: T2, BRD9 (Homo sapiens, UniProt Q9H8M2); settings: previously reported; cited from earlier work
T2 sequence (Q9H8M2 1-597): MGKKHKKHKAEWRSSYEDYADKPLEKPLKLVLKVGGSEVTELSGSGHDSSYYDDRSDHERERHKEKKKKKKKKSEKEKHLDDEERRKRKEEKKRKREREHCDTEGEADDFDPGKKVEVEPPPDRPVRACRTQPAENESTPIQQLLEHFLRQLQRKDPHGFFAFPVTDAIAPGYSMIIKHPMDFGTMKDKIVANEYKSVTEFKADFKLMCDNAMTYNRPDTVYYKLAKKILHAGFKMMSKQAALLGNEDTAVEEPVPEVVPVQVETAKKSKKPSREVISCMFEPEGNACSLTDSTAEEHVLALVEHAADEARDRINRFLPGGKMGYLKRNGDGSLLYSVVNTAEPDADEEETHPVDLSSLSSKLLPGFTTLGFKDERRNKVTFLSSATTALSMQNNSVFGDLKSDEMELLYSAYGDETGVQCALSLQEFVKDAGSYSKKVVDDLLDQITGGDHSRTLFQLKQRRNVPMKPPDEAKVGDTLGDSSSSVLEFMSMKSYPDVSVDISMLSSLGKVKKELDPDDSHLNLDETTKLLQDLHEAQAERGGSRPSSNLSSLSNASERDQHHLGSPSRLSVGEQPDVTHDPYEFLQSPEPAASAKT

BRD4(1) [5] = target: T3, BRD4(1) (Homo sapiens, UniProt O60885); test: PrOF NMR titration, 5FW-BRD4(1); assay type: binding; set-up: three class I bromodomains, BPTF, PCAF, CECR2 and one class II bromodomain, BRD4(1) were fluorine-labelled; made in house; settings: 5FW-labeled protein
Procedure: (§5) Protein-Observed Fluorine (PrOF) NMR. […] 40-50 μM of protein in 50 mM TRIS, 100 mM NaCl, and pH 7.4 was diluted by adding 25 μL of D2O and 2 μL of 0.1% TFA for NMR locking and referencing purposes, respectively. […] Ligands were titrated and the change in chemical shift relative to the control sample was plotted as a function of ligand concentration to generate binding isotherms. The data was processed in Mestrenova and isotherms were fit using GraphPad Prism with the equation below. Δδobs is the change in chemical shift, [L] is the total ligand concentration, and [P] is the total protein concentration:
(§6) The tryptophan residue in the WPF shelf of three class I bromodomains, BPTF, PCAF, CECR2 and one class II bromodomain, BRD4(1) were fluorine-labelled (FIG. 4A) and the chemical shift perturbation on titrating in BZ1 was observed.

CECR2 [6] = target: T4, CECR2 (Homo sapiens, UniProt Q9BXF3); test: BROMOscan, CECR2; assay type: binding; set-up: off-target class I (PCAF, GCN5L2, CECR2,) and class IV (BRD7, BRD9) bromodomains and BRD4(1); purchased; settings: BROMOscan one-point measurement at 140 nM
From the text: (§2) Based on the preliminary assessment of BPTF selectivity and affinity of BZ1 by PrOF NMR and AlphaScreen competition assays, the ligand was characterized using a commercial BROMOscan assay. […]. Given the low concentration of ligand and protein used, AlphaScreen can be used to estimate K values as was previously the case for characterizing BRD4-ligand interactions, however the assay for BPTF may slightly underestimate the affinity. […] […]. Recently reported pyridazinone-based inhibitors also bind to these proteins and BRD9 was reported as the closest off-target for TP-238. These studies supported good on target-BPTF inhibition, and identified several off-targets bromodomains for a more quantitative selectivity analysis.
Target sequence in this assay (Q9BXF3 434-538 limits assumed): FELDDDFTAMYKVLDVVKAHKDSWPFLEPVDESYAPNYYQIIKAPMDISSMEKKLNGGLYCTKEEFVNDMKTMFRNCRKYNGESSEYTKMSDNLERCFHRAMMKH

[7] = assay type: physicochemical
Procedure: UV-Vis Methods. Compounds were diluted in DMSO at a top concentration of 100 mM. 2-fold serial dilutions in DMSO where performed followed by 1000-fold dilution into phosphate saline buffer (PBS) to get a final top concentration of 100 μM in 0.1% DMSO for each compound. UV-Vis measurements at 254 nm were taken on a Biomate 3S Spectrophotometer.

GCN5L2 = target: T5, GCN5L2 (Homo sapiens, UniProt Q92830); test: BROMOscan, GCN5L2; assay type: binding; settings: BROMOscan one-point measurement at 140 nM
T5 construct: off-target class I (PCAF, GCN5L2, CECR2,) and class IV (BRD7, BRD9) bromodomains and BRD4(1); purchased
T5 sequence (Q92830 728-832 limits assumed): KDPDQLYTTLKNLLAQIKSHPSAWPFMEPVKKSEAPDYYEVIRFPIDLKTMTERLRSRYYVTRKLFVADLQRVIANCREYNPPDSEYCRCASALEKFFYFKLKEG
From the text: as §2

PCAF [8] = target: T6, PCAF (Homo sapiens, UniProt Q92831); test: PrOF NMR titration, 5FW-PCAF; assay type: binding; settings: 5FW-labeled protein
T6 construct: three class I bromodomains, BPTF, PCAF, CECR2 and one class II bromodomain, BRD4(1) were fluorine-labelled; made in house
T6 sequence (Q92831 723-827): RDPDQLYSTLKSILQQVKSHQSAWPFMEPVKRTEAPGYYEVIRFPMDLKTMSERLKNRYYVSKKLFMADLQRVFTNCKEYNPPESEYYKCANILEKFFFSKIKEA
Procedure: as §5, §6

CECR2 [9] = target: T4, CECR2; test: PrOF NMR titration, 5FW-CECR2; assay type: binding; set-up: three class I bromodomains, BPTF, PCAF, CECR2 and one class II bromodomain, BRD4(1) were fluorine-labelled; made in house; settings: 5FW-labeled protein
Target sequence in this assay (Q9BXF3 434-538): as the sequence (Q9BXF3 434-538 limits assumed) above
Procedure: as §5, §6

Eph4 cells = settings: 5 μM
Procedure: Cytotoxicity experiments with Eph4 cells. […] Media containing each condition were changed every 12 hours. […] Cells were also stained with Live/Dead Violet (Thermo Scientific, #L34964) in accordance to manufacturers specifications. All flow was performed on a Macsquant 10 (Miltenyl Biotec) and analyzed on FlowJo (TreeStar/BD).

BRD4(1) [10] = target: T3, BRD4(1); test: BRD4(1) AlphaScreen competitive inhibition assay; assay type: binding; set-up: Unlabeled His9-tagged BPTF and BRD4 D1 were expressed and purified as described previously; made in house
Procedure: as §3, §4

BPTF = target: T7, BPTF (Homo sapiens, UniProt Q12830); test: BROMOscan, BPTF; assay type: binding
T7 construct: Kd values for BZ1 with BPTF and off-target class I (PCAF, GCN5L2, CECR2,) and class IV (BRD7, BRD9) bromodomains; purchased

PCAF [11] = target: T8, PCAF (Homo sapiens, UniProt Q92831); test: BROMOscan, PCAF; assay type: binding
T8 construct: off-target class I (PCAF, GCN5L2, CECR2,) and class IV (BRD7, BRD9) bromodomains and BRD4(1); purchased
T8 sequence (Q92831 723-827 limits assumed): T6 sequence (Q92831 723-827)
Procedure: Given that these measurements were only estimates of affinity, a full titration was carried out for five additional bromodomains (FIG. 5B).

[12] = disclosed by the structural genomics consortium; cited from earlier work
CECR2 [13] = target: T4, CECR2; settings: disclosed by the structural genomics consortium; cited from earlier work
Target sequence in this assay (Q9BXF3 whole entry): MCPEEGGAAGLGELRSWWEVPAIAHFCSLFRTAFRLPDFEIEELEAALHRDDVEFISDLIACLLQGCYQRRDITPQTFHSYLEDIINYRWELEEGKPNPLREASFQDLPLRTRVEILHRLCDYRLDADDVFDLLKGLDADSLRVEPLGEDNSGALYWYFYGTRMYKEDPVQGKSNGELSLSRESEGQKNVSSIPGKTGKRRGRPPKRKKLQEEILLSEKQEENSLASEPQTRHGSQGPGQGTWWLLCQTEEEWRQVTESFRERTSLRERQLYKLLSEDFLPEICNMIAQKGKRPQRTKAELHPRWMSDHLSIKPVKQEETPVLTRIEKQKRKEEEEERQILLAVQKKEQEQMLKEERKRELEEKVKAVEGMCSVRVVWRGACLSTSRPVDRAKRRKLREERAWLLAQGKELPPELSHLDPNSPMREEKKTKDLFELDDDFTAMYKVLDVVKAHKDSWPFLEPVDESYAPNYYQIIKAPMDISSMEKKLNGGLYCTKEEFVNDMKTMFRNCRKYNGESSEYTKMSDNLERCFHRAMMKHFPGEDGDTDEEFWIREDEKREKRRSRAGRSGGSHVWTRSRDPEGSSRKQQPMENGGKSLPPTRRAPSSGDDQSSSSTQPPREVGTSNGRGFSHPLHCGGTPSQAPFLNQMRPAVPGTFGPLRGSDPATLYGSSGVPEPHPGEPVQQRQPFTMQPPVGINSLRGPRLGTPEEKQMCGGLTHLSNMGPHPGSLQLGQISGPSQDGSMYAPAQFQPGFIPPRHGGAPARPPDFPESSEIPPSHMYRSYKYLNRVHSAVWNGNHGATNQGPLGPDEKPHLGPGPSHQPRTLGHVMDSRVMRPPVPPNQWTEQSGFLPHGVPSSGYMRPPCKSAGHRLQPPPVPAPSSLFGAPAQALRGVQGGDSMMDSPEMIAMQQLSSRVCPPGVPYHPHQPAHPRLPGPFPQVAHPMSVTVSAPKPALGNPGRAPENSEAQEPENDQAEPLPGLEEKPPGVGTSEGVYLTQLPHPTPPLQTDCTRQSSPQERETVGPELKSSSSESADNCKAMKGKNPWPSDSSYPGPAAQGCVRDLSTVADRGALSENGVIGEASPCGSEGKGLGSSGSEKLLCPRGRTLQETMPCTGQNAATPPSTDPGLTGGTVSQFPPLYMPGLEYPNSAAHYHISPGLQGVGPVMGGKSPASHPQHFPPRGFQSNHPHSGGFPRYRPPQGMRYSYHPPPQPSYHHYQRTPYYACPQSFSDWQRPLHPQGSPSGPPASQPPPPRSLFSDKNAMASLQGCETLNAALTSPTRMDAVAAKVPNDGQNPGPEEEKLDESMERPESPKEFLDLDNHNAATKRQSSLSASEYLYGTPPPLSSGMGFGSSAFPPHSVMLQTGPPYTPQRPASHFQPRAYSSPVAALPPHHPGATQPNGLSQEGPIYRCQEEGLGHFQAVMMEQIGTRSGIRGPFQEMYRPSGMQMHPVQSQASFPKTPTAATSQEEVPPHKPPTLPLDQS

SMILES: COC(=O)c1cccc(NC(=O)N[C@H]2CCN(c3ccnc(Nc4ccc(F)cc4)n3)C2)c1 [AU1, reference compound]
- Sfn mRNA level (Sfn): upregulated Sfn but did not reach a high enough level of statistical significance
- sensitization of 4T1 cells to doxorubicin (4T1 cells [1]): synergize with chemotherapy drug doxorubicin
- further toxicity in BPTF knockdown cells [2]: Additional toxicity was observed
- concentration at which toxicity starts (4T1 cells [3]): above 16 μM

SMILES: Cn1ncc(Nc2ccccc2)c(Cl)c1=O [Compound 6, 4-chloro-2-methyl-5-(phenylamino)pyridazin-3(2H)-one]
- improvement in affinity compared to previous aliphatic amine analogues (BPTF bromodomain): 10 fold
- affinity for PCAF (PCAF [4]): 10 µM
- affinity for BRD9 (BRD9): 2.5 µM

SMILES: Cn1ncc(Nc2ccc(CCN)cc2)c(Cl)c1=O [Compound 18, 5-((4-(2-aminoethyl)phenyl)amino)-4-chloro-2-methylpyridazin-3(2H)-one]
- chemical exchange regime with BRD4(1) (BRD4(1) [5]): fast-intermediate exchange
- inhibition of CECR2 (CECR2 [6]): lower levels of inhibition
- solubility [7]: ≥ 100 µM
- sensitization of 4T1 cells to doxorubicin (4T1 cells [1]; listed as BZ1): synergize with chemotherapy drug doxorubicin; also recorded: sensitized 4T1 cells to doxorubicin
- inhibition of GCN5L2 (GCN5L2): lower levels of inhibition
- chemical exchange regime with PCAF (PCAF [8]): slow exchange regime stoichiometric titration
- chemical exchange regime with CECR2 (CECR2 [9]): intermediate chemical exchange

SMILES: CN(C)CCc1ccc(Nc2cnn(C)c(=O)c2Cl)cc1 [Compound 19, 4-chloro-5-((4-(2-(dimethylamino)ethyl)phenyl)amino)-2-methylpyridazin-3(2H)-one]
- Sfn mRNA level (Sfn): statistically significant increase
- solubility [7]: ≥ 100 µM
- sensitization of 4T1 cells to doxorubicin (4T1 cells [1]): synergize with chemotherapy drug doxorubicin; also recorded: sensitized 4T1 cells to doxorubicin
- less effective than BZ1 (4T1 cells [1]; dose dependence experiment with doxorubicin): 2-4 fold
- caspase activation (Eph4 cells): lack of caspase activation

SMILES: CN(C)CCc1ccc(Nc2c(Cl)cnn(C)c2=O)cc1 [Compound 20, 5-chloro-4-((4-(2-(dimethylamino)ethyl)phenyl)amino)-2-methylpyridazin-3(2H)-one]
- Sfn mRNA level (Sfn): not significantly affected
- pIC50 (BPTF bromodomain): 5.00
- weaker affinity than 18 (BPTF bromodomain): 140 fold
- L.E. (ligand efficiency) (BPTF bromodomain; from BPTF AlphaScreen): 0.32
- solubility [7]: ≥ 100 µM
- sensitization of 4T1 cells to doxorubicin (4T1 cells [1]): did not

- pIC50 (BPTF bromodomain): 6.42
- pIC50 (BRD4(1) [10]): 4.15
- pKd (BPTF): 6.70
- pKd (PCAF [11]): 6.64
SMILES: C#CCn1ncc(Nc2ccc(CN)cc2)c(Cl)c1=O [Compound 24, 5-((4-(aminomethyl)phenyl)amino)-4-chloro-2-(prop-2-yn-1-yl)pyridazin-3(2H)-one]

SMILES: Cc1c(Nc2ccc(S(=O)(=O)N3CCN(C)CC3)cc2F)nc2ccc(-c3cnn(C4CC4)c3)cn2c1=O [NVS-BPTF-1]
- solubility and ADME properties [12]: poor solubility and ADME properties

SMILES: CN(C)CCCOc1ccc(-c2cc(NCCCn3cccn3)nc(S(C)(=O)=O)n2)cc1 [TP-238]
- higher affinity for CECR2 over BPTF (CECR2 [13]): 12 fold
